From patent US8846704B2, “Thiopyrimidine-based compounds and uses thereof” (YM Biosciences Austraila Pty Ltd, priority 2007, dated 2014)

What was measured:
Flt 4(h) = target: T1, Flt 4(h) (Homo sapiens, UniProt P35916); assay: Upstate KinaseProfiler enzyme assay, Flt 4; type: biochemical; details: 500 nM compound; read-out: Percent inhibition at 500 nM Flt 4(h)
T1 construct: purchased Upstate Biotechnology (Dundee, UK), KinaseProfiler service
Method: (§1) Further enzyme assays were conducted at Upstate Biotechnology (Dundee, UK) in the KinaseProfiler™ Assay system.
(§2) The general protocol is as follows. All kinases are pre-diluted to a 10× working concentration prior to addition into the assay. The composition of the dilution buffer for the kinases is 20 mM MOPS pH 7.0, 1 mM EDTA, 0.1% β-mercaptoethanol, 0.01% Brij-35, 5% glycerol, 1 mg/ml BSA. All substrates are dissolved and diluted to working stocks in de-ionised water.

BaF3 wild-type cells = assay: Cellular screening, BaF3 wild-type cells, Alamar Blue; type: cell-based; details: Mus musculus, 40 hr, read-out: BAF3wt IC50_nM
Method in brief: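 Compounds, screened from dilution plates at 20 μM, were added as 10× final stocks to cells grown in DMEM/10% FCS/10% WEHI 3B conditioned medium. Cells were seeded at 1.1× final (50,000–200,000 cells/mL) and incubated 40 hr at 37° C, 5% CO2. Viability was read at 544 nm after a further 4–6 hours with Alamar Blue.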

human JAK3 = target: T2, human JAK3 (Homo sapiens, UniProt P52333); assay: Alphascreen tyrosine kinase enzyme assay, JAK3 kinase domain; type: biochemical; details: read-out: JAK3 IC50_nM
T2 construct: The kinase domain of human JAK3 was amplified; GST (N); made in house; host or cells: Sf9 insect cells (baculovirus)
T2 sequence (P52333 822-1111 limits assumed): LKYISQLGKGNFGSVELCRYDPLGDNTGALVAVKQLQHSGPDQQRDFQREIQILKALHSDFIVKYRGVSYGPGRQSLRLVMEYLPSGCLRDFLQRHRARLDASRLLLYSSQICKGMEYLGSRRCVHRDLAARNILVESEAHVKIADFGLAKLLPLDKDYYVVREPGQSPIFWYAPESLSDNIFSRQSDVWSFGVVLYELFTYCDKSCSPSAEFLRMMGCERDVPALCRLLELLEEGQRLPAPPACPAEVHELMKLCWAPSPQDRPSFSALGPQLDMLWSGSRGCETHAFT
Method in brief: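 GST-affinity-purified human JAK3 kinase domain (baculovirus/Sf9) was pre-incubated 20 min with compound ([…]) in HEPES pH 7.5 buffer with MgCl2, vanadate and Tween 20. Biotinylated peptide substrate ([…]) and ATP were then added; phosphotyrosine was detected by AlphaScreen PY100 acceptor and streptavidin donor beads after 2–3 h.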

Flt 1(h) = target: T3, Flt 1(h) (Homo sapiens, UniProt P17948); assay: Upstate KinaseProfiler enzyme assay, Flt 1; type: biochemical; details: 500 nM compound; read-out: Percent inhibition at 500 nM Flt 1(h)
T3 construct: purchased Upstate Biotechnology (Dundee, UK), KinaseProfiler service
T3 sequence (P17948 27-1338): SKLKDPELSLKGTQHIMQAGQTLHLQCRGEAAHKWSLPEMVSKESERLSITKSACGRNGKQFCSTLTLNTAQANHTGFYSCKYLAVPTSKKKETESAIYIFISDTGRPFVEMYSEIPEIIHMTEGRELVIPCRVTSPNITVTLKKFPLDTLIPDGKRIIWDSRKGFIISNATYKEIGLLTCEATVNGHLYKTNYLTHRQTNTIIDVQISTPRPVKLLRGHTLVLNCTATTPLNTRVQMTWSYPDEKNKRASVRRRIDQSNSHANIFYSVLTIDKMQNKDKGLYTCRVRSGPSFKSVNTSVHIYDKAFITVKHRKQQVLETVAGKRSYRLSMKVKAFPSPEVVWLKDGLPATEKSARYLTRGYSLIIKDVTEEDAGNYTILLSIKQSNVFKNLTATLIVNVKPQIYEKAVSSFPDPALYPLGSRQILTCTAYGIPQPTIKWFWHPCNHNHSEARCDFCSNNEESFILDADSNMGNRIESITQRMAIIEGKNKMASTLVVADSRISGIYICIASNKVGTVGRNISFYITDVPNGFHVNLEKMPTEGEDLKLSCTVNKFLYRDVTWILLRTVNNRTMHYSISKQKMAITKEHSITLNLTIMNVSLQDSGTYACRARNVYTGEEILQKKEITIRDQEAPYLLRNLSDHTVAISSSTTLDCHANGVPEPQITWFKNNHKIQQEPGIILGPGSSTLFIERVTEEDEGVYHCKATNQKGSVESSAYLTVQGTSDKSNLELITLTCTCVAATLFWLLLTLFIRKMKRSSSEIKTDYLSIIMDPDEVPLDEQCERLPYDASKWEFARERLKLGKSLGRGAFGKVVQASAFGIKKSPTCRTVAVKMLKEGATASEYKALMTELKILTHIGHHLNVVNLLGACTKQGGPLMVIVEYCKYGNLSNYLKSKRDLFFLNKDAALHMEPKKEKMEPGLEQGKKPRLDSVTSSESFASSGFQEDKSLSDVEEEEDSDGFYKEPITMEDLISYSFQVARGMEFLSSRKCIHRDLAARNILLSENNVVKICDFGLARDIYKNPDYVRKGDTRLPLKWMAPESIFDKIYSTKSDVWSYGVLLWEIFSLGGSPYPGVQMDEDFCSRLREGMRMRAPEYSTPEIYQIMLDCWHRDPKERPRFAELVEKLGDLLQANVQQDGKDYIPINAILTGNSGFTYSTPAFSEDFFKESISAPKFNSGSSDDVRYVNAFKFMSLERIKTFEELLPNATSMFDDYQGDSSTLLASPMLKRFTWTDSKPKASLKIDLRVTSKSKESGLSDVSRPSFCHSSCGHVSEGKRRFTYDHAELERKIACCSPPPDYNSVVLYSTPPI
Method: as §1, §2

Bmx(h) = target: T4, Bmx(h) (Homo sapiens, UniProt P51813); assay: Upstate KinaseProfiler enzyme assay, Bmx; type: biochemical; details: 500 nM compound; read-out: Percent inhibition at 500 nM Bmx(h)
T4 construct: purchased Upstate Biotechnology (Dundee, UK), KinaseProfiler service
T4 sequence (P51813 1-675): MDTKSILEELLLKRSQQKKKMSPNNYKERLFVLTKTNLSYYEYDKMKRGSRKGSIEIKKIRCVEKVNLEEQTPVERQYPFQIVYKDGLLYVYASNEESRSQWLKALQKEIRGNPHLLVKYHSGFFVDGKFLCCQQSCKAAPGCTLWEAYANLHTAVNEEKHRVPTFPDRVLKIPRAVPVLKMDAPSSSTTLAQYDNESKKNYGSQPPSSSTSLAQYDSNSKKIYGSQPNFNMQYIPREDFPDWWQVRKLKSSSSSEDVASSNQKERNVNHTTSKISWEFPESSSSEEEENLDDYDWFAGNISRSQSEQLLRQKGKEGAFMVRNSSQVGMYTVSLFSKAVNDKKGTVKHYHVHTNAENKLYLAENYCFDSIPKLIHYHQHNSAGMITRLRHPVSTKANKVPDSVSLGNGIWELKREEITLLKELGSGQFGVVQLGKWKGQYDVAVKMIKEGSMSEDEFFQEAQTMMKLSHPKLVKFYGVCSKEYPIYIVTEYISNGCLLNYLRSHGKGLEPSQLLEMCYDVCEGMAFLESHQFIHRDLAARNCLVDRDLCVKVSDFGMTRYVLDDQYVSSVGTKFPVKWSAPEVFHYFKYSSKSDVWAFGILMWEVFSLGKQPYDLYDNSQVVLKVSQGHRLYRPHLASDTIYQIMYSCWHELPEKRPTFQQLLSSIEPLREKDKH
Method in brief: (§3)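 Kinase diluent: MOPS 20 mM (pH 7.0), EDTA 1 mM, β-ME 0.1%, Brij-35 0.01%, glycerol 5%, BSA 1 mg/ml; enzymes made up at 10× working strength. Substrates dissolved and diluted in deionised water.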

BTK(h) = target: T5, BTK(h) (Homo sapiens, UniProt Q06187); assay: Upstate KinaseProfiler enzyme assay, BTK; type: biochemical; details: 500 nM compound; read-out: Percent inhibition at 500 nM BTK(h)
T5 construct: purchased Upstate Biotechnology (Dundee, UK), KinaseProfiler service
T5 sequence (Q06187 whole entry): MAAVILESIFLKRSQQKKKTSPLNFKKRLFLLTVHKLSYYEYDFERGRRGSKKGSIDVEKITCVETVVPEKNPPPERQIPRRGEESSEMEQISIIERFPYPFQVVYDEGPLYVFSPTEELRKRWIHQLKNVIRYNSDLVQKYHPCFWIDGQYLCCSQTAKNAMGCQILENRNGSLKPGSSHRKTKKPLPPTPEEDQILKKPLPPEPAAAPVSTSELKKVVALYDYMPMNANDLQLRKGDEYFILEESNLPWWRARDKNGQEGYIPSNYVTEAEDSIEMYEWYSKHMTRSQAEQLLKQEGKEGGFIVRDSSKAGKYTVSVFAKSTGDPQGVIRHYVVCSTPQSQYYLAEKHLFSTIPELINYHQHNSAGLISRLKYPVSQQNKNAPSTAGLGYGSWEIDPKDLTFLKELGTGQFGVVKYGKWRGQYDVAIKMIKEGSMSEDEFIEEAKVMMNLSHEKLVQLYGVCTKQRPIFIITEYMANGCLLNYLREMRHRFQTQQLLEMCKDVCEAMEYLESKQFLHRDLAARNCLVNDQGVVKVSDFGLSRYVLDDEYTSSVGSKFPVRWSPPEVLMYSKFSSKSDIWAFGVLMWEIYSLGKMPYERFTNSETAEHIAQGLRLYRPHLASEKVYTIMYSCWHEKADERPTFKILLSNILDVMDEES
Method in brief: as §3

KDR(h) = target: T6, KDR(h) (Homo sapiens, UniProt P35968); assay: Upstate KinaseProfiler enzyme assay, KDR; type: biochemical; details: 500 nM compound; read-out: Percent inhibition at 500 nM KDR(h)
T6 construct: purchased Upstate Biotechnology (Dundee, UK), KinaseProfiler service
T6 sequence (P35968 20-1356): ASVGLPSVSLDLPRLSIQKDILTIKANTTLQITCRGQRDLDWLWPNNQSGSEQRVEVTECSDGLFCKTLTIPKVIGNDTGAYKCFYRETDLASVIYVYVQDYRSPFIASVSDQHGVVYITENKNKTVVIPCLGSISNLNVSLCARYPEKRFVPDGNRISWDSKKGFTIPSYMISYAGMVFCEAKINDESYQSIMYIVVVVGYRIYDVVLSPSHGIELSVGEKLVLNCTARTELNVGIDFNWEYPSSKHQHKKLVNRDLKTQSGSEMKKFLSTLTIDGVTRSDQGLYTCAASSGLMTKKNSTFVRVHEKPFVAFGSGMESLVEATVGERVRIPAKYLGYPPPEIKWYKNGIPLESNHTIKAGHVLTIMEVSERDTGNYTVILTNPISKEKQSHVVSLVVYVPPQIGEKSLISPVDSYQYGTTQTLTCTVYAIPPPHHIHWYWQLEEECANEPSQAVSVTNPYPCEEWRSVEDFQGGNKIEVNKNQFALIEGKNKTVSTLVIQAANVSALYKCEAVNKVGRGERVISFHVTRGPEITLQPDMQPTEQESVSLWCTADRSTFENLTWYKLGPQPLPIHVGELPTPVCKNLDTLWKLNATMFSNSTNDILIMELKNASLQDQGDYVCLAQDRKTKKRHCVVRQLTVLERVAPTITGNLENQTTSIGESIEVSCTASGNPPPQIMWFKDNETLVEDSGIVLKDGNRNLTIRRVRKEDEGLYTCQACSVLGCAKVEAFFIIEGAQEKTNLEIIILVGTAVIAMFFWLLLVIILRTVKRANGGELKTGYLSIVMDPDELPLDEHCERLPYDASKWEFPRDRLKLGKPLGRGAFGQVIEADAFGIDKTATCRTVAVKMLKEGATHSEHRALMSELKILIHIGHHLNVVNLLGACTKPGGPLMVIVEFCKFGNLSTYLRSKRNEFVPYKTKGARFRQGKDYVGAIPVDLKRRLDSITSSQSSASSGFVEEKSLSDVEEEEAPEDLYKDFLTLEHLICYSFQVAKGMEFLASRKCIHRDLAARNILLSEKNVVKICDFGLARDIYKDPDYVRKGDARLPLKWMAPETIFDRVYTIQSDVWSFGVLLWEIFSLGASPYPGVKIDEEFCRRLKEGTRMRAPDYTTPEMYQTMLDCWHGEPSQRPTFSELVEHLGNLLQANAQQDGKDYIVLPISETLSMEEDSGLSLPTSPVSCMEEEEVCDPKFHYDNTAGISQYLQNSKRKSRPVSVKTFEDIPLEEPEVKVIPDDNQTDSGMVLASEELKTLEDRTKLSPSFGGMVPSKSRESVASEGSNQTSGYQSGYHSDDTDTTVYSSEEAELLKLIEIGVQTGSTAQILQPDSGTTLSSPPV
Method in brief: as §3

Blk(m) = target: T7, Blk(m) (Mus musculus, UniProt P16277); assay: Upstate KinaseProfiler enzyme assay, Blk; type: biochemical; details: 500 nM compound; read-out: Percent inhibition at 500 nM Blk(m)
T7 construct: purchased Upstate Biotechnology (Dundee, UK), KinaseProfiler service
T7 sequence (P16277 whole entry): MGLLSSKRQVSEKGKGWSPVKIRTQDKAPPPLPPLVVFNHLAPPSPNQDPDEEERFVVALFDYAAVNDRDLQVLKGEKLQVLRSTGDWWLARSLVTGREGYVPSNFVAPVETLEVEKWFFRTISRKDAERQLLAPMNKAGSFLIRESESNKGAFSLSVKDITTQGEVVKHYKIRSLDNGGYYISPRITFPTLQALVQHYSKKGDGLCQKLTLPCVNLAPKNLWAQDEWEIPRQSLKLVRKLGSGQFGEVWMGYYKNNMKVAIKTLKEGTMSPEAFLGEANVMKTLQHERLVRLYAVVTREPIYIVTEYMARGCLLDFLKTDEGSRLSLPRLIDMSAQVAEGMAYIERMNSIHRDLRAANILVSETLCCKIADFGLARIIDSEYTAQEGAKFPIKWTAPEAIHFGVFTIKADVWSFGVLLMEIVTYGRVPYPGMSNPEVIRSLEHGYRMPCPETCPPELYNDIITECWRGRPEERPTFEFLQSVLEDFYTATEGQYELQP
Method in brief: as §3

| Compound | inhibition at 0.5 µM (Flt 4(h)) [%] | IC50 (BaF3 wild-type cells) [µM] | IC50 (human JAK3) [nM] | inhibition at 0.5 µM (Flt 1(h)) [%] | inhibition at 0.5 µM (Bmx(h)) [%] | inhibition at 0.5 µM (BTK(h)) [%] | inhibition at 0.5 µM (KDR(h)) [%] | inhibition at 0.5 µM (Blk(m)) [%] |
| --- | --- | --- | --- | --- | --- | --- | --- | --- |
| C=CC(=O)Nc1ccc(Sc2nc(Nc3ccc(OC)c(OC)c3)ncc2C)cc1 [Compound 241, N-(4-(2-(3,4-dimethoxyphenylao)-5-methylpyrimidin-4-ylthio)phenyl)acrylamide] | 100 | < 20 | < 100 | 100 | 92 | 88 | 97 | 98 |
| C=CC(=O)Nc1ccc(Sc2nc(Nc3ccc(C4CCN(C)CC4)cc3)ncc2C)cc1 [Compound 246, N-(4-(5-methyl-2-(4-(1-methylpiperidin-4-yl)phenylao)pyrimidin-4-ylthio)phenyl)acrylamide] | 100 | – | < 100 | 100 | 98 | 97 | 93 | 97 |
| N#Cc1nnnn1Cc1ccc(Sc2ccnc(Nc3ccc(N4CCOCC4)cc3)n2)cc1 [Compound 155, 1-(4-(2-(4-morpholinophenylao)pyrimidin-4-ylthio)benzyl)-1H-tetrazole-5-carbonitrile] | 99 | < 20 | < 100 | 74 | 86 | 81 | 98 | 40 |
| Cc1cnc(Nc2ccc(N3CCOCC3)cc2)nc1Sc1ccc(N2C(=O)CSCC2=O)cc1 [Compound 231, 4-(4-(5-methyl-2-(4-morpholinophenylao)pyrimidin-4-ylthio)phenyl)thiomorpholine-3,5-dione] | 100 | > 20 | < 100 | 95 | 99 | 91 | 99 | 82 |
| C=CC(=O)Nc1ccc(Sc2nc(Nc3cccc(N4CCN(C)CC4)c3)ncc2C)cc1 [Compound 243, N-(4-(5-methyl-2-(3-(4-methylpiperazin-1-yl)phenylao)pyrimidin-4-ylthio)phenyl)acrylamide] | 100 | < 5 | < 100 | 100 | 96 | 97 | 97 | 99 |
| CC#CC(=O)Nc1ccc(Sc2ccnc(Nc3cccc(N4CCOCC4)c3)n2)cc1 [Compound 233, N-(4-(2-(3-morpholinophenylao)pyrimidin-4-ylthio)phenyl)but-2-ynamide] | 99 | < 5 | < 100 | 99 | 89 | – | 98 | 85 |
| C=CC(=O)Nc1ccc(Sc2nc(Nc3ccc(OCCCN(CC)CC)cc3)ncc2C)cc1 [Compound 291, N-(4-(2-(4-(3-(diethylao)propoxy)phenylao)-5-methylpyrimidin-4-ylthio)phenyl)acrylamide] | 100 | < 5 | < 100 | 100 | 99 | 95 | 96 | 99 |
| C=CC(=O)Nc1ccc(Sc2nc(Nc3cccc(CO)c3)ncc2C)cc1 [Compound 280, N-(4-(2-(3-(hydroxymethyl)phenylao)-5-methylpyrimidin-4-ylthio)phenyl)acrylamide] | 100 | < 20 | < 100 | 100 | 98 | 97 | 97 | 99 |
| N#Cc1nnn(Cc2ccc(Sc3ccnc(Nc4ccc(N5CCOCC5)cc4)n3)cc2)n1 [Compound 156, 2-(4-(2-(4-morpholinophenylao)pyrimidin-4-ylthio)benzyl)-2H-tetrazole-5-carbonitrile] | 94 | < 5 | < 100 | 80 | 83 | 81 | 97 | 41 |
| C=CC(=O)Nc1ccc(Sc2nc(Nc3cccc(OC)c3)ncc2C)cc1 [Compound 235, N-(4-(2-(3-methoxyphenylao)-5-methylpyrimidin-4-ylthio)phenyl)acrylamide] | 99 | – | < 100 | 86 | 79 | – | 96 | 86 |
| Cc1cnc(Nc2ccc(N3CCOCC3)cc2)nc1Sc1c(C)cc(N)cc1C [Compound 165, 4-(4-ao-2,6-dimethylphenylthio)-5-methyl-N-(4-morpholinophenyl)pyrimidin-2-ae] | 99 | > 20 | < 500 | 43 | 40 | – | 86 | 0 |
| C=CC(=O)Nc1ccc(Sc2ccnc(Nc3ccc(N4CCN(C)CC4)cc3)n2)cc1 [Compound 238, N-(4-(2-(4-(4-methylpiperazin-1-yl)phenylao)pyrimidin-4-ylthio)phenyl)acrylamide] | 99 | – | < 100 | 97 | 90 | – | 95 | 99 |
| C=CC(=O)Nc1ccc(Sc2nc(Nc3ccc(N4CCOCC4)cc3)ncc2C)c(C)c1 [Compound 163, N-(3-methyl-4-(5-methyl-2-(4-morpholinophenylao)pyrimidin-4-ylthio)phenyl)acrylamide] | 99 | > 20 | < 100 | 83 | 85 | – | 97 | 95 |
| Cc1cc(N)ccc1Sc1nc(Nc2ccc(N3CCOCC3)cc2)ncc1C [Compound 162, 4-(4-ao-2-methylphenylthio)-5-methyl-N-(4-morpholinophenyl)pyrimidin-2-ae] | 98 | < 20 | < 100 | 82 | 55 | – | 95 | 50 |
| N#Cc1ncn(Cc2ccc(Sc3ccnc(Nc4ccc(N5CCOCC5)cc4)n3)cc2)c1C#N [Compound 201, 1-(4-(2-(4-morpholinophenylao)pyrimidin-4-ylthio)benzyl)-1H-imidazole-4,5-dicarbonitrile] | – | < 5 | < 100 | – | 100 | 100 | 100 | 100 |
| C=CC(=O)Nc1ccc(Sc2nc(Nc3cccc(N4CCOCC4)c3)ncc2C)cc1 [Compound 237, N-(4-(5-methyl-2-(3-morpholinophenylao)pyrimidin-4-ylthio)phenyl)acrylamide] | 99 | < 1 | < 100 | 98 | 92 | – | 97 | 96 |
